How the values were obtained:
[1] = test system: CO in intact RBL-1 cells; test: CO inhibition in intact RBL-1 cells (Procedure III); type: cell-based, rat; conditions: superscript = number of experiments, read-out: PROC. III IC50 CO
Experimental: (§1) The ability to inhibit 5-LO and CO in intact RBL-1 cells was also evaluated. RBL-1 cells were maintained in culture in minimal essential medium (Bio*Whittaker, Walkersville, MD), containing 12.5% fetal calf serum, 10 mg/mL streptomycin, 10 I.U./mL penicillin G, […] gentamycin and 2 mM L-glutamine (Bio*Whittaker, Walkersville, MD). Cells were collected by centrifugation, washed once in HBSS, and resuspended at a concentration of 1×10^5 cells/mL. Cells were incubated in the presence of vehicle or drug then centrifuged at 800×g for 10 minutes at 4° C. The supernatant was removed by aspiration and the cells were resuspended in 0.5 mL of HBSS. The reaction was started by the addition of 20 μg/mL of calcium ionophore A-23187 (mixed calcium and magnesium salts, Calbiochem, La Jolla CA) and allowed to proceed for 15 minutes, then stopped by plunging the tubes into a slush ice bath. The conversion of AA to 5-LO products was initiated by the addition of 10 μL (50 uCi) of 1-^14 C-AA. Products were isolated by acidification and extraction, followed by thin layer chromatography analysis as described above. Radioactive areas corresponding to authentic 5-LO and CO products were quantitated by the Bioscan 2000 Imaging System.

[2] = biological target: T1, RBL-1 cell cyclooxygenase (Rattus norvegicus, UniProt Q63921); test: RBL-1 cell cyclooxygenase, cell homogenate supernatant (Procedure II); type: biochemical; conditions: RBL-1 homogenate, 3 μM; read-out: PROC. II % INHIBITION CO
T1 construct: the supernatant was saved as the source of enzymes; endogenous in cells; host or cells: RBL-1 rat basophilic leukemia cells, homogenate supernatant
T1 sequence (Q63921 27-602): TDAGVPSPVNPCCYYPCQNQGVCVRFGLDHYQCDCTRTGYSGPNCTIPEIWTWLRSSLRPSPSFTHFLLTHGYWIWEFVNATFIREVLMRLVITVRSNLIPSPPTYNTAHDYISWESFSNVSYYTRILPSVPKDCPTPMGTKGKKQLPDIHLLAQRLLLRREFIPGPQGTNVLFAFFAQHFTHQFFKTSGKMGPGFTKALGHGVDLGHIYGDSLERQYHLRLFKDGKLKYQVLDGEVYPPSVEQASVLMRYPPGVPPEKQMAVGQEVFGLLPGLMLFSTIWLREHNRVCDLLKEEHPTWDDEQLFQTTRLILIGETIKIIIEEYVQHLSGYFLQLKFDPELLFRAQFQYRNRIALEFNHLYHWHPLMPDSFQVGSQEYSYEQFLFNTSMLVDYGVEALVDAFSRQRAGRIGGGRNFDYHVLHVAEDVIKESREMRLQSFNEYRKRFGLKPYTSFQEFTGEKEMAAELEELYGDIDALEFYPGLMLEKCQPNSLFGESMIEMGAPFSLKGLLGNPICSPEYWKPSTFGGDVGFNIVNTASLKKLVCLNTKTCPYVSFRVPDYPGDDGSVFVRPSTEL
Experimental: (§2) RBL-1 cell 5-lipoxygenase and cyclooxygenase
(§3) Rat basophilic leukemia cells (RBL-1; 5×10^7 viable cells/mL) were disrupted by homogenization on ice (four 20 sec bursts) with a Brinkman polytron. Complete cell breakage was verified microscopically. The homogenate was then centrifuged at 10,000×g for 48 minutes at 4° C. The pellet was discarded and the supernatant was saved as the source of enzymes. The supernatant was pre-incubated for five minutes at 37° C. in the presence of 2 mM of CaCl2 and compound or vehicle (1% DMSO). The conversion of AA into 5-LO products was initiated by adding 10 μL (50 μCi) of 1-^14 C-AA to each tube and incubated at 37° C. for 20 minutes. The reaction was stopped by adjusting the pH of each sample to 3 to 3.5 with 2M formic acid. Samples were extracted with three volumes of chloroform to isolate the products of 5-LO formed during the reaction. Fractions were dried under nitrogen, then resuspended in 40 μL of chloroform and spotted onto silica gel HL plates. The plates were developed in A-9 solvent. The dried plates were analyzed using a Bioscan Imaging TLC scanner to determine the percentage of radiolabelled AA converted to 5-HETE in each sample.

[3] = biological target: T2, 5-LO in intact RBL-1 cells (Rattus norvegicus, UniProt P12527); test: 5-LO inhibition in intact RBL-1 cells (Procedure III); type: cell-based; conditions: read-out: PROC. III IC50 5-LO
T2 construct: endogenous in cells; host or cells: intact RBL-1 cells
T2 sequence (P12527 1-673): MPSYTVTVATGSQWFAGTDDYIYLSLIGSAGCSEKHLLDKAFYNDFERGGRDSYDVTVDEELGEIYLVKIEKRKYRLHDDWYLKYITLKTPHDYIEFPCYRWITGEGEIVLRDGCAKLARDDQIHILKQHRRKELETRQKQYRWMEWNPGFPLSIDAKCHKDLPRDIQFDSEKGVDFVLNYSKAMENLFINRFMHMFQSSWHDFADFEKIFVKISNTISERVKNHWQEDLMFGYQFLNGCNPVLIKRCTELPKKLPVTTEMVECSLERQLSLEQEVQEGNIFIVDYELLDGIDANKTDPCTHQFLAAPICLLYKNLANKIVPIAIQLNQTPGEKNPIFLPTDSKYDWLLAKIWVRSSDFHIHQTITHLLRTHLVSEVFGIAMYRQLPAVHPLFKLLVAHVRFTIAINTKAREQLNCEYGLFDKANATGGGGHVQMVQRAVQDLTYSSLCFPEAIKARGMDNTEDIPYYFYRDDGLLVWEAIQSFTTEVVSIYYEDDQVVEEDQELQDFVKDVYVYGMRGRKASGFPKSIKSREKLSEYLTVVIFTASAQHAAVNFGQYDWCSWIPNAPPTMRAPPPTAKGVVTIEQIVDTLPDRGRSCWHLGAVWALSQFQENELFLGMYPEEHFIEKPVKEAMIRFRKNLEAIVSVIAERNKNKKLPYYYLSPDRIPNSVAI
Experimental: as §1

[4] = biological target: T3, RBL-1 cell 5-lipoxygenase (Rattus norvegicus, UniProt P12527); test: RBL-1 cell 5-lipoxygenase, cell homogenate supernatant (Procedure II); type: biochemical; conditions: RBL-1 homogenate, 3 μM; read-out: PROC. II % INHIBITION 5-LO
T3 construct: the supernatant was saved as the source of enzymes; endogenous in cells; host or cells: RBL-1 rat basophilic leukemia cells, homogenate supernatant
T3 sequence (P12527 1-673): T2 sequence (P12527 1-673)
Experimental: as §2, §3

[5] = biological target: T4, Sheep seminal vesicle cyclooxygenase (Ovis aries, UniProt P05979); test: Sheep seminal vesicle cyclooxygenase (Procedure I); type: biochemical; conditions: read-out: PROC. I % INHIB CO
T4 construct: Sheep seminal vesicle (SSV) cyclooxygenase (95% pure); purchased Biomol (Plymouth Meeting, Pa.); host or cells: sheep seminal vesicle
T4 sequence (P05979 25-600): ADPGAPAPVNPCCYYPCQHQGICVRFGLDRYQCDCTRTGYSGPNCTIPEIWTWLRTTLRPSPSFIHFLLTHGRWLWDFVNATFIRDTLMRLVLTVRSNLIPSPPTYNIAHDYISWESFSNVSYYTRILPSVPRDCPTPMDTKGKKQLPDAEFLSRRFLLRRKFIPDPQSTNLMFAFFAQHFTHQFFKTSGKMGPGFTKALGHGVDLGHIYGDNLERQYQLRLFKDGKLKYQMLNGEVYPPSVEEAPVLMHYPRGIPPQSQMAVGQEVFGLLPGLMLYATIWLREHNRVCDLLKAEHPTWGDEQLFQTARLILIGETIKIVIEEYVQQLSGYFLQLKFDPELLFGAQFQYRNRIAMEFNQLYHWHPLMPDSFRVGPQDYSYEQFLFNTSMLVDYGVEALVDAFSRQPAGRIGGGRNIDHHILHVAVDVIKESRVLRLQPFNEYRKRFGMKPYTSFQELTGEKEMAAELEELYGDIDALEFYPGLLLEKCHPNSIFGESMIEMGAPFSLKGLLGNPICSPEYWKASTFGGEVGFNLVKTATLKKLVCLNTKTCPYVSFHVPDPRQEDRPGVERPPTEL
Experimental: Sheep seminal vesicle cyclooxygenase Sheep seminal vesicle (SSV) cyclooxygenase (95% pure, prostaglandin endoperoxide synthase, EC 1.14.99.1 specific activity 24 units/mg protein) obtained as a lyophilized powder from Biomol (Plymouth Meeting, Pa.) was reconstituted at a concentration of 59 mg/mL in Hanks' Balanced Salt Solution (HBSS). The enzyme was divided into 200 μL aliquots, snap frozen with liquid N2, and stored at -70° C. unitl immediately prior to use. Measurements of CO activity were carried out in polypropylene tubes containing 495 μL of HBSS to which was added 5 μL of inhibitor or dimethylsulfoxide (DMSO; vehicle control) and 6 μL of SSV CO solution. The tubes were mixed on a vortex shaker, preincubated for 5 min at 37° C. prior to the initiation of the reaction. The reaction was started by the addition of [^14 C]-arachidonic acid (1-^14 C-AA, Amersham, Arlington Heights, Il) in 10 μL of methanol. Tubes were again vortexed and incubated in a water bath for 20 minutes after which the tubes were removed and the reaction stopped by acidification with the addition of 1 mL 2M formic acid. Lipophilic products were extracted with 3 mL chloroform and concentrated to dryness under N2. Each pellet was reconstituted with 40 μL of chloroform and spotted on a Whatman Silicon thin-layer chromatography plate and developed in a chromatography tank containing A-9 solvent (11:5:2:1 V:V:V:V, ethyl acetate:trimethylpentane:acetic acid:double distilled-H2 O). Radioactive cyclooxygenase products (prostaglandin D2, prostaglandin E2, etc.) were measured using a Bioscan System 200 Imaging Scanner. Inhibition of enzyme activity was calculated by comparing the areas under the curve produced in the presence or absence of test compound.

Row | SMILES | IC50 [1] | inhibition at 3 µM [2] | IC50 [3] | inhibition at 3 µM [4] | inhibition at 3 µM [5]
1 | COc1ccc(-n2nc(CSC(=S)N(C)O)cc2-c2ccc(C)cc2)cc1 [1-F] | 0.06 µM | 100% | 2.4 µM | 83% | 
2 | COc1ccc(-n2nc(CSC(=S)N(O)C(C)C)c(Br)c2-c2ccc(C)cc2)cc1 [1-K] |  | 0% |  | 87% | 0%
3 | COc1ccc(-n2nc(CSC(=S)N(C)O)cc2-c2ccc(Cl)cc2)cc1 [1-A, 5-(4-chlorophenyl)-1-(4-methoxyphenyl)-3-pyrazolylmethyl-N-hydroxy-N-methyl dithiocarbamate] | 0.23 µM | 100% | 2.5 µM | 85% | 
4 | COc1ccc(-n2nc(CSC(=S)N(C)O)c(Br)c2-c2ccc(C)cc2)cc1 [1-J] |  | 52% |  | 83% | 36%
5 | COc1ccc(-n2nc(CSC(=S)N(O)C(C)C)c(Cl)c2-c2ccc(C)cc2)cc1 [1-I] |  | 0% |  | 82% | 0%

— patent US5298521A, “1,5-diphenyl-3-pyrazolylalkyl-N-hydroxydithiocaramates, compositions and use” (Ortho Pharmaceutical Corporation, priority 1993, dated 1994)
